From BindingDB's records for doi:10.1042/BJ20030674 (University of Padova, 2003)

Test: In vitro kinase assay using purified enzyme, was incubated at room temperature with substrate, and test compounds in the presence of 100 uM ATP/ [gamma-33P] ATP. 33P incorporation was measured with scintillation counter. IC50 values were calculated from dose-response curves; from these calculated apparent inhibition constants (Ki) were obtained usin
Conditions: pH 7.5

NCCNc1cc(-c2ccnc(Nc3cccc(Cl)c3)n2)ccn1 [4-{2-[(2-aminoethyl)amino]pyridin-4-yl}-N-(3-chlorophenyl)pyrimidin-2-amine]
IC50: 9.6 µM

OCCCNc1cc(-c2ccnc(Nc3cccc(OC(F)(F)C(F)F)c3)n2)ccn1 [3-{[4-(2-{[3-(1,1,2,2-tetrafluoroethoxy)phenyl]amino}pyrimidin-4-yl)pyridin-2-yl]amino}propan-1-ol]
IC50: 3.6 µM

Clc1cccc(Nc2nccc(-c3ccnc(NCCc4cnc[nH]4)c3)n2)c1 [N-(3-chlorophenyl)-4-(2-{[2-(1H-imidazol-4-yl)ethyl]amino}pyridin-4-yl)pyrimidin-2-amine]
IC50: 3.2 µM
